In paper PMC10525135, “Computationally Designed AMPs with Antibacterial and Antibiofilm Activity against MDR Acinetobacter baumannii” (Antibiotics, 2023):
In brackets after ≈: the same amount, converted by molar mass. Like-named read-outs stand apart in the source and are kept apart here. Residues, ends and D or L forms follow the SMILES beside them.

Assays:
Format in all cases: cell-based, Acinetobacter baumannii
[1] = test system: A. baumannii AB5075 (MRSN959)
Procedure: (§1) Minimum inhibitory concentration (n = 3) was performed according to the CLSI protocols with a minor modification, in which Difco Mueller Hinton broth (BD 275730, Franklin Lakes, NJ, USA) was used instead of cation-adjusted Mueller Hinton broth following Wiegand et al.’s standardized protocol for testing AMPs. Bacteria were grown overnight in an opaque colony, and the concentration was determined using McFarland’s technique. An aliquot of 50 µL of 1 × 10^6 CFU/mL of bacteria was incubated with a decreasing series of peptide concentration to achieve a final bacterial concentration of 5 × 10^5 CFU/mL at 37 °C 5% CO2 for 20–24 h in Difco Mueller Hinton broth. Dilutions were performed in a 96-well polypropylene plate (Corning 3879, Corning, NY, USA). This is critical to avoid peptide binding to the plate. Results were obtained by measuring bacterial growth at OD600 nm. LL-37 and polymyxin B were used as positive controls. Samples containing only the medium and medium with peptides were used as the sterility controls and samples containing only bacteria in MHB served as the growth control. Each experiment was performed twice, and one representative experiment is shown.

A. baumannii BAA-1710 = details: A. baumannii BAA-1710; Difco Mueller Hinton broth, 5 × 10^5 CFU/mL, 37 °C 5% CO2, 20–24 h, OD600, n = 3
Procedure: as §1

A. baumannii BAA-1794 = details: A. baumannii BAA-1794; Difco Mueller Hinton broth, 5 × 10^5 CFU/mL, 37 °C 5% CO2, 20–24 h, OD600, n = 3
Procedure: as §1

A. baumannii BAA-1800 = details: A. baumannii BAA-1800; Difco Mueller Hinton broth, 5 × 10^5 CFU/mL, 37 °C 5% CO2, 20–24 h, OD600, n = 3
Procedure: as §1

[2] = test system: A. baumannii strains AB5075, BAA-1710, -1794, and -1800; details: summary over MDR A. baumannii strains of Table 3
Procedure: as §1

Question: For `CC[C@H](C)CCCCC(=O)N[C@@H](CCN)C(=O)N[C@H](C(=O)N[C@@H](CCN)C(=O)N[C@H]1CCNC(=O)[C@H]([C@@H](C)O)NC(=O)[C@H](CCN)NC(=O)[C@H](CCN)NC(=O)[C@H](CC(C)C)NC(=O)[C@@H](Cc2ccccc2)NC(=O)[C@H](CCN)NC1=O)[C@@H](C)O` [Polymyxin B] (HELM PEPTIDE1{[CC[C@H](C)CCCCC(=O)[*:2]].[Dab].T.[Dab].[Dab].[Dab].[dF].L.[Dab].[Dab].T}$PEPTIDE1,PEPTIDE1,5:R3-11:R2$$$V2.0; N-terminus assumed; bridges inferred), which MIC ([1]; A. baumannii AB5075 (MRSN959), Difco Mueller Hinton broth, 5 × 10^5 CFU/mL, 37 °C 5% CO2, 20–24 h, OD600, n = 3) is on record?
Answer: The MIC was 0.25 to 0.5 µg/mL.

Question: And the MIC ([1]; A. baumannii AB5075, experiment shown in Figure S2)?
Answer: Its MIC is 0.5 µg/mL (≈ 0.415 µM).

Question: And the MIC (A. baumannii BAA-1710)?
Answer: Its MIC is 0.5 µg/mL (≈ 0.415 µM).

Question: And the MIC (A. baumannii BAA-1794)?
Answer: The MIC was 0.5 µg/mL (≈ 0.415 µM).

Question: What about the MIC (A. baumannii BAA-1800) of the same compound?
Answer: The MIC was 0.5 µg/mL (≈ 0.415 µM).

Question: And the “MIC across the tested strains” value [2]?
Answer: Its value is 0.25 to 0.5 µg/mL.
